Assay results reported in EP0021678B1, “1-Sulpho-2-oxoazetidine derivatives, their production and pharmaceutical compositions thereof” (Takeda Chemical Industries, Ltd., priority 1979, dated 1981).
Read-outs that look alike come from different tables or passages of the source.

How the values were obtained:
Assay in all cases: Anti-bacterial test, minimum inhibitory concentration on agar
Assay type in all cases: cell-based
[1] = test system: Klebsiella pneumoniae DT; settings: Klebsiella pneumoniae DT; medium TSA; read-out: Minimum inhibitory concentration
Description: (§1) The compound (I) thus obtained is useful as a drug, being active against certain gram-positive and gram-negative bacteria. By way of example, the compounds are active against the following micro-organisms.
(§2) The media and compounds employed in the anti-bacterial test are as follows: • Media: • TSA = Trypticase soy agar • [Baltimore Biologicals (U.S.A.)] • B-TSA = Blood trypticase soy agar • Compounds: • Compound A = Sodium 3-[2-(2-amino-4-thiazolyl)-2-methoxyiminoacetamido]-2-oxo-azetidine-1-sulphonate • Compound B = Sodium 3-[D(-)-N-(4-ethyl-2,3-dioxo-1-piperazinocarbonyl)-phenyl-glycin- amido]-2-oxoazetidine-1-sulphonate • Compound C = Sodium 3-[D(-)-N-(4-ethyl-2,3-dioxo-1-piperazinocarbonyl)phenylglycinamido]-3-methoxy-2-oxoazetidine-1-sulphonate • Compound D = Sodium 3-[2-(4-ethyl-2,3-dioxo-1-piperazinocarboxamido)-2-(2-amino-4-thiazolyl)-acetamido]-2-oxoazetidine-1-sulphonate • Compound E = Sodium 3-[DL-2-(4-ethyl-2,3-dioxo-1-piperazinocarboxamido)-2-thienylacetamido]-2-oxoazetidine-1-sulphonate • Compound F = Sodium 3-[D-2-(4-ethyl-2,3-dioxo-1-piperazinocarboxamido)-2-thienylacetamido]-2-oxoazetidine-1-sulphonate • Compound G = Sodium 3-[D-2-(4-n-octyl-2,3-dioxo-1-piperazinocarboxamido)-2-phenylacetamido]-2-oxoazetidine-1-sulphonate • Compound H = Sodium 3-[2-(4-n-octyl-2,3-dioxo-1-piperazinocarboxamido)-2-(2-amino-4-thiazolyl)-acetamido]-2-oxoazetidine-1-sulphonate • Compound I = Sodium 3-[D-2-[(2-oxo-3-furfurylideneaminoimidazolidin-1-yl)-carboxamido]-2-phenylacetamido]-2-oxoazetidine-1-sulphonate • Compound J = Sodium 3-[2-(4-n-octyl-2,3-dioxo-1-piperazinocarboxamido)-2-thienylacetamido]-2-oxoazetidine-1-sulphonate • Compound K = Sodium 3-[D-2-[[2-oxo-3-(thiophen-2-aidoimino)-imidazolidin-1-yl]-carboxamido]-2-phenylacetamido]-2-oxoazetidine-1-sulphonate • Compound L = Sodium 3-[2-[(2-oxo-3-furfurylideneaminoimidazolidin-1-yl)-carboxamido]-2-thienylacetamido]-2-oxoazetidine-1-sulphonate

[2] = test system: Proteus morganii IFO 3168; settings: Morganella morganii, IFO3168; Proteus morganii IFO 3168; medium TSA; read-out: Minimum inhibitory concentration
Description: as §1, §2

[3] = test system: Staphylococcus aureus 1840; settings: Staphylococcus aureus 1840; medium TSA; read-out: Minimum inhibitory concentration
Description: as §1, §2

[4] = test system: Pseudomonas aeruginosa U 31; settings: U31; Pseudomonas aeruginosa U 31; medium TSA; read-out: Minimum inhibitory concentration
Description: as §1, §2

[5] = test system: Citrobacter freundii IFO 12681; settings: IFO12681; Citrobacter freundii IFO 12681; medium TSA; read-out: Minimum inhibitory concentration
Description: as §1, §2

[6] = test system: Streptococcus pyogenes E—14; settings: read-out: Minimum inhibitory concentration
Description: as §1, §2

[7] = test system: Staphylococcus aureus 308A—1; settings: read-out: Minimum inhibitory concentration
Description: as §1, §2

[8] = test system: Proteus mirabilis IFO 3849; settings: IFO3849; Proteus mirabilis IFO 3849; medium TSA; read-out: Minimum inhibitory concentration
Description: as §1, §2

[9] = test system: Proteus vulgaris IFO 3988; settings: IFO3988; Proteus vulgaris IFO 3988; medium TSA; read-out: Minimum inhibitory concentration
Description: as §1, §2

[10] = test system: Escherichia coli NIHJ JC—2; settings: Escherichia coli NIHJ JC—2; medium TSA; read-out: Minimum inhibitory concentration
Description: as §1, §2

[11] = test system: Bordetella bronchiseptica Sagami; settings: Bordetella bronchiseptica Sagami; medium B—TSA; read-out: Minimum inhibitory concentration
Description: as §1, §2

[12] = test system: Pseudomonas aeruginosa IFO 3455; settings: IFO3455; Pseudomonas aeruginosa IFO 3455; medium TSA; read-out: Minimum inhibitory concentration
Description: as §1, §2

[13] = test system: Serratia marcescens IFO 12648; settings: IFO12648; Serratia marcescens IFO 12648; medium TSA; read-out: Minimum inhibitory concentration
Description: as §1, §2

[14] = test system: Candida albicans TA; settings: Candida albicans TA; medium TSA; read-out: Minimum inhibitory concentration
Description: as §1, §2

[15] = test system: Corynebacterium diphtheriae Toronto; settings: Corynebacterium diphtheriae Toronto; medium B—TSA; read-out: Minimum inhibitory concentration
Description: as §1, §2

[16] = test system: Streptococcus mitis America; settings: Streptococcus mitis America; medium B—TSA; read-out: Minimum inhibitory concentration
Description: as §1, §2

[17] = test system: Escherichia coli T-7; settings: T7, medium TSA
Description: as §1, §2

[18] = test system: Enterobacter cloacae IFO 12937; settings: IFO12937; Enterobacter cloacae IFO 12937; medium TSA; read-out: Minimum inhibitory concentration
Description: as §1, §2

[19] = test system: Streptococcus faecium IFO 3128; settings: Enterococcus faecium, IFO3128; Streptococcus faecium IFO 3128; medium B—TSA; read-out: Minimum inhibitory concentration
Description: as §1, §2

[20] = test system: Streptococcus pyogenes S—8; settings: Streptococcus pyogenes S—8; medium B—TSA; read-out: Minimum inhibitory concentration
Description: as §1, §2

[21] = test system: Streptococcus pneumoniae Type I; settings: read-out: Minimum inhibitory concentration
Description: as §1, §2

[22] = test system: Staphylococcus aureus FDA209P; settings: Staphylococcus aureus, FDA209P, Staphylococcus aureus FDA209P, read-out: Minimum inhibitory concentration
Description: as §1, §2

[23] = test system: Acinetobacter calcoaceticus IFO 13006; settings: IFO13006; Acinetobacter calcoaceticus IFO 13006; medium TSA; read-out: Minimum inhibitory concentration
Description: as §1, §2

[24] = test system: Escherichia coli O—111; settings: medium TSA
Description: as §1, §2

| SMILES | MIC [1] [µg/mL] | MIC [2] [µg/mL] | MIC [3] [µg/mL] | MIC [4] [µg/mL] | MIC [5] [µg/mL] | MIC [8] [µg/mL] | MIC [9] [µg/mL] | MIC [10] [µg/mL] | MIC [11] [µg/mL] | MIC [12] [µg/mL] | MIC [13] [µg/mL] | MIC [14] [µg/mL] | MIC [15] [µg/mL] | MIC [16] [µg/mL] | MIC [17] [µg/mL] | MIC [18] [µg/mL] | MIC [19] [µg/mL] | MIC [20] [µg/mL] | MIC ([22]; medium B—TSA) [µg/mL] | MIC ([22]; medium TSA) [µg/mL] | also measured |
| --- | --- | --- | --- | --- | --- | --- | --- | --- | --- | --- | --- | --- | --- | --- | --- | --- | --- | --- | --- | --- | --- |
| O=C(NC1CN(S(=O)(=O)O)C1=O)[C@H](NC(=O)N1CCN(N=Cc2cccs2)C1=O)c1ccccc1 (stereo partly drawn) [Compound K, Sodium 3-[D-2-[[2-oxo-3-(thiophen-2-aidoimino)-imidazolidin-1-yl]-carboxamido]-2-phenylacetamido]-2-oxoazetidine-1-sulphonate] | 0.39 | 12.5 | 50 | > 100 | 1.56 | 1.56 | 0.39 | 1.56 | > 100 | 3.13 | 1.56 | > 100 | 3.13 | 1.56 | > 100 | 12.5 | > 100 | 1.56 | 6.25 | 6.25 | MIC ([6]; Streptococcus pyogenes E—14, medium B—TSA): 0.78 µg/mL; MIC ([7]; Staphylococcus aureus 308A—1, medium TSA): 3.13 µg/mL; MIC ([21]; Streptococcus pneumoniae Type I, medium B—TSA): 1.56 µg/mL; MIC [23]: 50 µg/mL; MIC [24]: 0.39 µg/mL |
| CCCCCCCCN1CCN(C(=O)NC(C(=O)NC2CN(S(=O)(=O)O)C2=O)c2csc(N)n2)C(=O)C1=O (centres unmarked) [Compound H, Sodium 3-[2-(4-n-octyl-2,3-dioxo-1-piperazinocarboxamido)-2-(2-amino-4-thiazolyl)-acetamido]-2-oxoazetidine-1-sulphonate] | 12.5 | 6.25 | 12.5 | 50 | 12.5 | 25 | 6.25 | 12.5 | > 100 | 12.5 | 12.5 | > 100 | 0.78 | 25 | > 100 | 50 | > 100 | 1.56 | 12.5 | 6.25 | MIC ([6]; Streptococcus pyogenes): 3.13 µg/mL; MIC ([7]; Staphylococcus aureus): 3.13 µg/mL; MIC ([21]; Streptococcus pneumoniae): 3.13 µg/mL; MIC [23]: 50 µg/mL; MIC [24]: 3.13 µg/mL |
